Data as given in patent publication US10947276B2, “Cell penetrating peptides with improved internalization properties” (SORBONNE UNIVERSITE, priority 2016, dated 2021).

What was measured:
[1] = tested on: MCF-7 cells; experiment: Intracellular detection of FITC-labelled peptides by FACS; format: cell-based, human; settings: MCF-7 (similar in Jurkat); for kinetic of internalization compared to control peptide Mut3DPT: 50 μM, different periods of time
Protocol: MCF-7 or Jurkat cell lines were cultured in the presence or in the absence of Mut3DPT (Panel A), Mut4DPT (Panel B), Mut5DPT (Panel C), Mut6DPT (Panel D) or Mut7DPT (Panel E) at 50 μM for different periods of time. The intensity of the FITC fluorescence due to the shuttle internalization was measured by FACS. The results presented in the figure correspond to MCF-7 cells. Similar results were obtained using Jurkat cell line.
MCF-7 or Jurkat cell lines were cultured in the presence or in the absence of Mut3DPT (Panel A), Mut4DPT (Panel B), Mut5DPT (Panel C), Mut6DPT (Panel D) or Mut7DPT (Panel E) at different concentrations for 4 h. The intensity of the FITC fluorescence due to the shuttle internalization was measured by FACS. The results presented in the figure correspond to MCF-7 cells. Similar results were obtained using Jurkat cell line.
Jurkat and MCF-7 cells were incubated with different concentrations of FITC-labeled peptides, then washed and analyzed by FACS in order to detect the intensity of fluorescence into the cells. Similarly, Jurkat and MCF-7 cells were incubated with a given peptide concentration at different times and after washing, cells were analyzed by FACS to estimate the intensity of fluorescence into the cells.
The inventors incubated the cells (Jurkat and MCF-7) with the peptides at different concentrations and different times and analyzed the intensity of the fluorescence into the cells by FACS. The result of kinetic of time incubation is shown on FIG. 1 and the kinetic of peptide concentration is shown on FIG. 2.

[2] = Peptide stability in human serum by MALDI-TOF mass spectrometry; format: in vitro ADME; settings: for stability (integrity) compared to control Mut3DPT: 37° C., human serum/plasma, 0 to 24 h
Protocol: A) Mut3DPT, Mut4DPT, Mut5DPT, Mut6DPT and Mut7DPT peptides were incubated at 37° C. in human serum for different periods of time and their integrity (percentage of intact peptide) were analyzed by mass spectrometry. Similar results were obtained in two independent experiments.
FIG. 5. Mut3DPT, Tat, Penetratin and R8 were treated and analyzed as above. The stability is referred to the intensity of the peaks.
Mut3DPT, as well as Mut4DPT, Mut5DPT, Mut6DPT and Mut7DPT were incubated at 37° C. in 250 μl human serum for different periods of time. Samples were collected and peptide degradation stopped by freezing. Peptides were extracted from collected samples using the ProteoMiner Protein Enrichment System (Bio-Rad). Peptide integrity (percentage of intact peptide) was analyzed by mass spectrometry using a MALDI-TOF (Brücker Autoflex II) following their standard protocols. Every measurement was performed by triplicate. MS data were analyzed using appropriate software (Clinprot tools, Flex analysis, Brücker).
The inventors have analyzed whether these new generated peptides have enhanced stability in plasma, compared to the control Mut3DPT. The peptides were incubated for different periods of time (from 0 to 24 h) at 37° C. with human plasma and their stability was analyzed by mass spectrometry (MS). […] The synthetic peptides Mut5DPT, Mut6DPT and Mut7DPT are also very stable to proteases degradation, compared to the control peptide Mut3DPT. Taken together, we can conclude that there is no modification of the stability upon 24 h of incubation with human serum.

[3] = tested on: MCF-7, PBMC; experiment: Internalization of shuttles by fluorescence microscopy, mass spectrometry and flow cytometry; format: cell-based, human; settings: MCF-7 25 μM (microscopy), 100 μM (MS); B cells of PBMC 100 μM 4 h
Protocol: A) MCF-7 cells were grown on coverslips and incubated 1 h at 37° C. with 25 μM of FITC-labelled peptides. Cells were washed 3 times with PBS, fixed with 4% paraphormaldeyde (PFA) and analyzed by fluorescence microscopy. Quantification of the microscopy images is shown. B) MCF7 were grown as above and incubated for different periods of time at 37° C. with 25 μM of FITC-labelled shuttles. Cells were treated as above and analyzed by fluorescence microscopy.
MCF-7 cells were cultured 4 h with 100 μM of each shuttle. After several washing steps, they were lysed and the extracts centrifuged. The intracellular peptide was detected by MS. Pure peptide was used as a control of molecular weight.
A) B cells were isolated (anti-hCD19-APC antibody) from peripheral blood mononuclear cells (PBMC) of healthy donors (HD) or B) chronic lymphocytic leukemia (CLL) patients. Cells were incubated 4 h with 100 μM of the FITC-labelled shuttles. The mean fluorescence intensity was detected by flow cytometry. Non treated cells were used as control.
Peripheral blood mononuclear cells from healthy (HD) donors or chronic lymphocytic leukaemia patients (CLL) were treated with FITC-labelled peptides and them, cells were harvested and washed twice with PBS to remove the extracellular unbound peptide. FITC fluorescence intensity of internalized peptide was measured by flow cytometry (BD Biosciences) by acquiring 10,000 live cells. B cells were selected with anti hCD19-APC labelled antibody. Experiments were carried out three times in duplicate. Untreated cells were used as control.
For intracellular localization of FITC-labelled peptides, MDA-MB231 or MCF7 cells were seeded in an 8-well Labtek (Thermo Fischer) at a density of 2×10^4 cells/well. Cells were treated with different concentrations of FITC-labelled peptides for different times. Cells were fixed with 4% of formaldehyde for 15 min at room temperature. Samples were washed twice with PBS and mounted in mounting solution containing DAPI. Images were captured with a fluorescence microscopy (Olympus Japan) using 63× magnification objective.
To detect the internalization of the peptides, breast cancer cell line MCF-7 cells were seeded in a 6-well plate at a density of 1×10^6 cells/well in DMEM medium supplemented with 10% FCS. Cells were treated with 100 μM of each shuttle for 4 h at 37° C., then cells were washed once with PBS. Cell pellet was collected by detaching with Trypsin EDTA following several washing step with PBS. Cells were resuspended in lysis buffer (Tris-HCl 50 mM, NaCl 20 mM, pH 8.0, supplemented with protease inhibitors) and lysed with Glass/Teflon potter (Elvehjem homogenizers), then centrifuged for 20 min at 16,000 g at 4° C. The peptides in the supernatant were concentrated with Ziptips (Millpore, ZTC18S096) according to the manufacture's protocol. The internalization of peptide was detected by mass spectrometry (MS) using a MALDI-TOF (Brucker Autoflx II). MS data were analyzed using appropriate software (Clinprot tools, Flex analysis, Brucker).
The inventors incubated the cells (MCF-7, PBMC) with the peptides at different concentrations (respectively 25 μM, and 100 μM) and analyzed the presence of the shuttles into the cells by fluorescence microscopy, mass spectrometry (MS) and flow cytometry.

[4] = tested on: MDA-MB231 cells; experiment: Intracellular localization of FITC-labelled peptides by fluorescence microscopy; format: cell-based, human; settings: 30 μM, 4 h
Protocol: MDA-MB231 cells (3×10^4 cells/ml) were grown on cover slips and incubated 4 h with 30 μM of FITC-labelled peptides. Cells were washed 3 times with PBS, fixed with 4% paraformaldeyde (PFA) and analyzed by fluorescence microscopy. Cells treated with mut7DPT-FITC were used as control.
MDA-MB231 cells (3×10^4 cells/ml) were grown on cover slips and incubated with 30 μM of peptide for different periods of time. Cells were washed 3 times with PBS, fixed with 4% PFA and analyzed by fluorescence microscopy.
MDA-MB231 cells (3×10^4 cells/ml) were incubated in cover slips for 3 h with 15 μM of the FITC-labelled peptides associated to a cargo (TEAD or YAP peptides). Cells were washed 3 times with PBS, fixed with 4% PFA and analyzed by fluorescence microscopy.
For intracellular localization of FITC-labelled peptides, MDA-MB231 was seeded in an 8-well Labtek (Thermo Fischer) at a density of 3×10^4 cells/well. Cells were treated with different concentrations of FITC-labelled peptides for different times. Cells were fixed or not with 4% of formaldehyde for 15 min at room temperature. Samples were washed twice with PBS and mounted in mounting solution containing DAPI. Images were captured with a fluorescence microscopy (Olympus Japan) using 63× magnification objective.

[5] = tested on: MDA-MB231 cell line; experiment: Toxicity of CPP-NLS peptides by FACS; settings: 25 and 50 μM, 4 h of incubation
Protocol: MDA-MB231 cells (6×10^4 cells/ml) were incubated 4 h with two different concentrations of peptide. Toxicity was analyzed by flow cytometry. […] Non treated cells were used as a control.
The peptides were added to MDA-MB231 cell line at 25 and 50 μM and the toxicity was analyzed by FACS upon 4 h of incubation.

[6] = tested on: MDA-MB231 cells; experiment: Apoptosis by Annexin V-FITC staining, shuttles associated to TEAD cargo; format: cell-based, human; settings: 10 and 25 μM, 4 h or 24 h
Protocol: MDA-MB231 cells (5×10^4 cells/ml) were cultured in the presence of different concentrations of shuttles or nuclear localization shuttles associated to the cargo TEAD for 4h or 24h (Non-treated, Panel A; Mut3DPT-TEAD, Panel B; NLS18, Panel C; NLS23, Panel D; NLS18 TEAD, Panel E, NLS23 TEAD, Panel F). Apoptosis was estimated by Annexin V-FITC staining. Cells treated with shuttle without cargo or nuclear localisation signal (NLS) were used as control. Standard deviation is shown.
The apoptosis induction of the different shuttles associated to a cargo (TEAD and YAP binding sites) was analyzed by annexinV-FITC staining (e Biosciences). Human breast cancer cell line MDA-MB231 was treated with different concentrations of peptide for 4 h and 24 h. After the treatment, cells were harvested, washed and treated according to the manufacturer protocol. The level of apoptosis was measured by flow cytometry (BD Biosciences, FACS Canto.
We further analyzed whether the weak apoptotic effect of the mut3DPT-TEAD peptide was increased in the new generated tri-functional peptides. Cells were cultured for 4 h or 24 h with 10 and 25 μM of NLS-18 or NLS-23 and apoptosis estimated by Annexin staining (FIG. 16). The association of TEAD interfering peptide to the NLS18 or NLS23 peptides strongly increases the apoptotic effect, compared to the control peptide.

Compound: VKKWKIKWWIKI (shuttle peptide Mut4DPT)
- kinetic of internalization compared to control peptide Mut3DPT [1]: better internalization
- stability (integrity) compared to control Mut3DPT [2]: as stable as the parental peptide
- internalization compared to the control peptide Mut3DPT [3]: better internalization

Compound: KKKKKWKKWKKK (Shuttle peptide Mut7DPT)
- time to plateau of internalization ([1]; 50 μM FITC-labelled peptide): 30 min
- stability (integrity) compared to control Mut3DPT [2]: very stable
- internalization compared to the control peptide Mut3DPT [3]: better internalization
- internalization, ranking among the new peptides [3]: a better internalization
- nuclear staining [4]: does not show nuclear staining
- toxicity [5]: none of the peptides show toxicity

Compound: VKKKKIKAEIKI-RLQLVEFSAFVEPPDAVD (VKKKKIKAEIKIRLQLVEFSAFVEPPDAVD; Mut3DPT-TEAD)
- apoptotic effect [6]: weak

Compound: KKWKKWKKWKK (Shuttle peptide Mut5DPT)
- kinetic of internalization compared to control peptide Mut3DPT [1]: better internalization
- stability (integrity) compared to control Mut3DPT [2]: very stable
- internalization compared to the control peptide Mut3DPT [3]: better internalization

Compound: N=C(N)NCCC[C@H](NC(=O)[C@H](CCCNC(=N)N)NC(=O)[C@H](CCCNC(=N)N)NC(=O)[C@H](CCCNC(=N)N)NC(=O)[C@H](CCCNC(=N)N)NC(=O)[C@H](CCCNC(=N)N)NC(=O)[C@H](CCCNC(=N)N)NC(=O)[C@@H](N)CCCNC(=N)N)C(=O)O [Peptide R8, reference compound]
- degradation compared to control Mut3DPT ([2]; 6 h incubation with human serum at 37° C.): stronger degradation
- degradation ([2]; 24 h incubation with human serum): extensively degraded

Compound: RRWRRWRRWRR (Shuttle peptide Mut6DPT)
- share of the total fluorescence achieved one minute after incubation ([1]; 50 μM FITC-labelled peptide, 1 min): Around 50%
- time to plateau of internalization ([1]; 50 μM FITC-labelled peptide): 15 min
- kinetic of internalization compared to control peptide Mut3DPT [1]: rapidly internalized
- stability (integrity) compared to control Mut3DPT [2]: very stable
- internalization compared to the control peptide Mut3DPT [3]: better internalization
- internalization, ranking among the new peptides [3]: a better internalization
